Assay results reported in US10918643B2, “No-donors for the treatment of cerebrovascular vasospasms after brain hemorrhage” (Westfaelische Wilhelms-Universitaet Muenster, priority 2015, dated 2021).

How the values were obtained:
[1] = tested on: vasospasm and DCI after SAH; conditions: cited from earlier work
[2] = tested on: delayed cerebral ischemia (DCI) after aneurismal SAH; test: Clinical neurological status and outcome (Hunt&Hess, WFNS, GCS, mNIH-SS, mRS) of the SAH patient; conditions: for recurrent clinical deteriorations (times observed): despite Nimodipine and Molsidomine infusions, right- and left-sided deficits or coma
[3] = tested on: cerebral vasospasm of the middle cerebral artery (MCA) after aneurismal SAH; test: Transcranial Doppler (TCD) mean blood flow velocity in the MCAs, rescue treatment of one SAH patient; conditions: for MCA TCD R/L PRE, right / MCA TCD R/L PRE, left: continuously infused Molsidomine
[4] = tested on: cerebral arteries / brain perfusion after aneurismal SAH; test: Radiology (CT, CT-A, CT-P, DSA/arteriography, MRI) of the SAH patient; assay type: in vivo, human
[5] = 3, 6, and 12 months follow up, continuous Molsidomine plus intraventricular SNP boluses
[6] = Discharge at 38th POD, after Molsidomine + Nimodipine + 7 SNP boluses
[7] = discharge on the 38th day after SAH
[8] = discharge on the 38th day after SAH, Nimodipine + Molsidomine + 7 SNP boluses

COc1ccccc1Oc1c(NS(=O)(=O)c2ccc(C)cn2)nc(-c2ccnc(-c3nnn[nH]3)c2)nc1OCCO [Clazosentan]
outcome despite powerful suppression of (measurable) vasospasms ([1]; Macdonald et al. 2007): does not lead to an improved outcome

CCOC(=O)[N-]c1c[n+](N2CCOCC2)no1 [Molsidomine, N-ethoxycarbonyl-3-morpholinosydnonimine]
cognitive deficit [2, 5]: did not have any cognitive deficit | mNIH-SS [2, 5]: 0 | mRS [2, 5]: 0 | RESULT: cognitive skills [2, 6]: full cognitive | RESULT: mNIH-SS [2, 6]: mNIH-SS: 0 | RESULT: mRS [2, 6]: mRS: 0 | clinical stabilization (Hunt&Hess grade I, WFNS I) ([2]; Molsidomine given after failure of standard therapy, before vasospasm and DCI progressed): clinical stabilization had been achieved for a week | recurrent clinical deteriorations (times observed) [2]: 7 times | Hunt&Hess grade [2, 7]: 0 | cognitive deficit [2, 7]: without cognitive deficit | mNIH-SS grade [2, 8]: 0 | mRS grade [2, 8]: 0 | clinical status (HH I, WFNS I) ([2]; intravenous Molsidomine at the full dose, for several days): clinically stable | GCS ([2]; intravenous Molsidomine at the full dose, several days): 14-15 | clinical outcome and cerebral infarction ([1]; SAH patients treated with intravenous molsidomine (Ehlert et al., 2015)): significant improvement in clinical outcome and less cerebral infarction | TCD mean flow velocity in the left MCA (LMCA) ([3]; 9th day after SAH at deterioration under Molsidomine, before SNP, 140 cm/sec the day before): 150 cm/s | TCD mean flow velocity in the RMCA ([3]; 9th day after SAH at deterioration under Molsidomine, before SNP, unchanged): 80 cm/s | MCA TCD R/L PRE, right ([3]; POD 9th first episode (R hemiplegia, aphasia), before 1st SNP dose, mean flow): r: 160/ cm/sec | MCA TCD R/L PRE, left ([3]; POD 9th first episode, before 1st SNP dose, mean flow): l: 150 cm/sec | MCA TCD R/L PRE, right ([3]; POD 9th second episode (hemiplegia l, sopor), before 2nd SNP dose): r: 190 cm/sec | MCA TCD R/L PRE, right ([3]; POD 10th 3rd episode (hemiplegia l, sopor), before 3rd SNP dose): r: 170 cm/sec | MCA TCD R/L PRE, right ([3]; POD 17th 4th episode (hemiplegia, hemiparesis, sopor, intubation), before 4th SNP dose): R: 170 cm/sec | MCA TCD R/L PRE, left ([3]; POD 17th 4th episode, before 4th SNP dose): L: 120 cm/sec | MCA TCD R/L PRE, right ([3]; POD 18 6th episode (still intubated), before 6th SNP dose): R: 160 cm/sec | MCA TCD R/L PRE, left ([3]; POD 18 6th episode, before 6th SNP dose): L: 110 cm/sec | MCA TCD R/L PRE, right ([3]; POD 22 7th episode (sudden loss of vigilance), before 7th SNP dose): R: 180 cm/sec | MCA TCD R/L PRE, left ([3]; POD 22 7th episode, before 7th SNP dose): L: 140 cm/sec | MCA TCD R/L (values) ([3]; POD 23-38, tapering of Molsidomine and Nimodipine, after 7 SNP boluses): Normal | mean blood flow velocities in both MCAs ([3]; intravenous Molsidomine at the full dose (16 mg/hr), with Nimodipine): ≤ 160 cm/s | RADIOLOGY pre SNP (CT; CT-A; CT-P) ([4]; POD 17th 4th episode, before 4th SNP dose, during Molsidomine, both sides l > r, CTT prolonged, high grade vasospasm in MCAs and ACA): impaired perfusion | RADIOLOGY MRI: temporal ischemic lesion and gliosis at ventricular drainage site ([4]; POD 23-38, tapering of Molsidomine and Nimodipine): MRI (5): tiny

COCCOC(=O)C1=C(C)NC(C)=C(C(=O)OC(C)C)C1c1cccc([N+](=O)[O-])c1 (stereo not drawn) [Nimodipine]
recurrent clinical deteriorations (times observed) [2]: 7 times
